Data taken from ChEMBL document CHEMBL5131409, “Synthesis and characterization of chiral 6-azaspiro[2.5]octanes as potent and selective antagonists of the M4 muscarinic acetylcholine receptor” (Bioorg Med Chem Lett, 2022).

Experiments:
[1] = target: T1, Muscarinic acetylcholine receptor M4 (Homo sapiens, UniProt P08173); assay: Inhibition of human muscarinic acetylcholine M4 receptor expressed in CHO cells co-expressing Gqi5 in the presence of acetylcholine at EC80 concentration by calcium mobilization assay; type: functional, cell-based
T1 sequence (P08173 whole entry): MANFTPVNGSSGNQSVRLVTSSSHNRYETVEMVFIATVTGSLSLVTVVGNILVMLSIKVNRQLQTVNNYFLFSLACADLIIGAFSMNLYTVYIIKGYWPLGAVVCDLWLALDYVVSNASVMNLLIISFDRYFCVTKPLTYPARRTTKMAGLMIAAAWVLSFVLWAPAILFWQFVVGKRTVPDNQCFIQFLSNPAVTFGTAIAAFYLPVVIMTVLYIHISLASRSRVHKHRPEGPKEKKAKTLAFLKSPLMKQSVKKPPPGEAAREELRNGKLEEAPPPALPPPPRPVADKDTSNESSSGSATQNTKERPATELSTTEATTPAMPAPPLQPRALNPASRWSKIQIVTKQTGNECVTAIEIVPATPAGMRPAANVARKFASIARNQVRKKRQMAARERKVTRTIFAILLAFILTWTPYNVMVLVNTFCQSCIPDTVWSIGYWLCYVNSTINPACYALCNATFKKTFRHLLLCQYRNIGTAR

[2] = target: T2, Muscarinic acetylcholine receptor M4 (Homo sapiens) (UniProt P08173); assay: Antagonist activity at human muscarinic acetylcholine M4 receptor expressed in CHO cells co-expressing Gqi5 assessed as minimal acetylcholine response by calcium mobilization assay relative to control; type: functional, cell-based; parameters: scale not given: the % may be the effect or the level left; details: filed as antagonist
T2 sequence (whole entry): T1 sequence (P08173 whole entry)

[3] = target: T3, Muscarinic acetylcholine receptor M2 (Homo sapiens, UniProt P08172); assay: Inhibition of human muscarinic acetylcholine M2 receptor expressed in CHO cells co-expressing Gqi5 in the presence of acetylcholine at EC80 concentration by calcium mobilization assay; type: functional, cell-based
T3 sequence (P08172 whole entry): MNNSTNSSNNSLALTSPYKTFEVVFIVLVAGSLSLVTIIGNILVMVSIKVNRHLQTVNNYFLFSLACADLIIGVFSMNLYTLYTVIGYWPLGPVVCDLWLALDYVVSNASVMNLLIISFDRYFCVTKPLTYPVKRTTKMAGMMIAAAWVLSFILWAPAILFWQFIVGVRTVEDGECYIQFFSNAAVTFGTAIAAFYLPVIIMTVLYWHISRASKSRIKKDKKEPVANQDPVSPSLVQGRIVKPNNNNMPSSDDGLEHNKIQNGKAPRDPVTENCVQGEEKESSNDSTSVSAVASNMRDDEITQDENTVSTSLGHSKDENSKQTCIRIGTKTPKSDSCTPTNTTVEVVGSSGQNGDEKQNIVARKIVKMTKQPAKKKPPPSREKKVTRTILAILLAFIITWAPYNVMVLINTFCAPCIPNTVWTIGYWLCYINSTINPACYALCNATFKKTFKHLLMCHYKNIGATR

[4] = Selectivity ratio of IC50 for inhibition of human muscarinic acetylcholine M2 receptor to IC50 for inhibition of human muscarinic acetylcholine M4 receptor expressed in CHO cells co-expressing Gqi5 in the presence of acetylcholine at EC80 concentration by calcium mobilization assay; type: cell-based
[5] = target: T4, Cytochrome P450 1A2 (Homo sapiens, UniProt P05177); assay: Inhibition of CYP1A2 in human liver microsomes using cocktail of isoform-specific probe substrate; type: ADME, Microsome
T4 sequence (P05177 whole entry): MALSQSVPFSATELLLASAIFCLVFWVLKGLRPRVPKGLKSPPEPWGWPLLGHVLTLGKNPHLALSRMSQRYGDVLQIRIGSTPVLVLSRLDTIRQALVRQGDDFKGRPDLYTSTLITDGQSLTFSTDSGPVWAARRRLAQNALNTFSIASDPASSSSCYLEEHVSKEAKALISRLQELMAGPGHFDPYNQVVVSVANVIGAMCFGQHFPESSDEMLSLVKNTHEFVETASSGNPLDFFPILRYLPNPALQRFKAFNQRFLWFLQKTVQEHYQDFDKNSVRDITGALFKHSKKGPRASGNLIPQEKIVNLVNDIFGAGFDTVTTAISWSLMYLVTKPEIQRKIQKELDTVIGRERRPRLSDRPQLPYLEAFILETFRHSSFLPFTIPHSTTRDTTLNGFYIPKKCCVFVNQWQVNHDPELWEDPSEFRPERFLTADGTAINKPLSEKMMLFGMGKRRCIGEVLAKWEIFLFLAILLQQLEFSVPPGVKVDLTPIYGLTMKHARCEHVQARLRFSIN

[6] = target: Cytochrome P450 2C9 (Homo sapiens, UniProt P11712); assay: Inhibition of CYP2C9 in human liver microsomes using cocktail of isoform-specific probe substrate; type: ADME, Microsome
Chain of Cytochrome P450 2C9 (P11712 whole entry, canonical isoform): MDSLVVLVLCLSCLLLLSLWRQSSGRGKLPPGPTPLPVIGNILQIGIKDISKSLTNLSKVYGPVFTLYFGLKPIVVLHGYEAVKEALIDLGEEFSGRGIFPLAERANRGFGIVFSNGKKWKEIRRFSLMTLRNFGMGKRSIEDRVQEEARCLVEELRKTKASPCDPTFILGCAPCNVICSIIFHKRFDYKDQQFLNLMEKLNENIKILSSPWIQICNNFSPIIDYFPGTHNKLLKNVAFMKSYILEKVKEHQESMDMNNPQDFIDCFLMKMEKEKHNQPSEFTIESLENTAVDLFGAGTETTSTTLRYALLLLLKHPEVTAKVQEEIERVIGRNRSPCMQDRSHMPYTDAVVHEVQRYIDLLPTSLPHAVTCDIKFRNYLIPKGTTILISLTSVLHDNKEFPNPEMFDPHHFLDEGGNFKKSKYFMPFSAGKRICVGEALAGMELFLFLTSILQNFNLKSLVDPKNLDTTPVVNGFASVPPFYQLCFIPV

[7] = target: Cytochrome P450 2D6 (Homo sapiens, UniProt P10635); assay: Inhibition of CYP2D6 in human liver microsomes using cocktail of isoform-specific probe substrate; type: ADME, Microsome
Chain of Cytochrome P450 2D6 (P10635 whole entry, canonical isoform): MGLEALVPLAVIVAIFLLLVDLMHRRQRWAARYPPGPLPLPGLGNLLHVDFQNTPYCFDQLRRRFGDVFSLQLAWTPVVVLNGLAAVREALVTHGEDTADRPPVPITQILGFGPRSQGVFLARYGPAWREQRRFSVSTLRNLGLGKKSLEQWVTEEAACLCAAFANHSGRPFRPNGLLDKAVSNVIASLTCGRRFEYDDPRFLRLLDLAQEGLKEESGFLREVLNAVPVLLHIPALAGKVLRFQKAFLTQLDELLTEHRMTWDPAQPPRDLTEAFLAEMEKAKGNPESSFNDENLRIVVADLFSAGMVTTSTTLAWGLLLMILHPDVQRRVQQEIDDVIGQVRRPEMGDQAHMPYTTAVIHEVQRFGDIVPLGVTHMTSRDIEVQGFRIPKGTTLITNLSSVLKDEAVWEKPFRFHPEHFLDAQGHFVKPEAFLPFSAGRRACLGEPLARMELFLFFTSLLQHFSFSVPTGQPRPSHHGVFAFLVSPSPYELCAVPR

[8] = target: Cytochrome P450 3A4 (Homo sapiens, UniProt P08684); assay: Inhibition of CYP3A4 in human liver microsomes using cocktail of isoform-specific probe substrate; type: ADME, Microsome
Chain of Cytochrome P450 3A4 (P08684 whole entry, canonical isoform): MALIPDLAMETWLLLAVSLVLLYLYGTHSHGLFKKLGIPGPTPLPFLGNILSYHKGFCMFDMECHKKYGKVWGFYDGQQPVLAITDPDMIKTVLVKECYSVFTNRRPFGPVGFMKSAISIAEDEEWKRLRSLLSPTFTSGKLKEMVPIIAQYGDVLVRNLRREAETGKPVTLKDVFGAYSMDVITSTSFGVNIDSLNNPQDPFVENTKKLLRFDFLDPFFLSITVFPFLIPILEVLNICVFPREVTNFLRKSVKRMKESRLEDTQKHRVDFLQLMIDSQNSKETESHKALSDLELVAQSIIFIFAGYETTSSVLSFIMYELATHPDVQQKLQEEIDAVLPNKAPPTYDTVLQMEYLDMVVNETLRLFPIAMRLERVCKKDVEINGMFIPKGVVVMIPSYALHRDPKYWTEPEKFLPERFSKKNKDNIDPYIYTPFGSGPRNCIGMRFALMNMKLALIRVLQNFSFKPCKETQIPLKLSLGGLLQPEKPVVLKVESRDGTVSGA

[9] = Intrinsic clearance in human liver microsomes; type: ADME, Microsome; details: read-out: CLH
[10] = target: T5, Muscarinic acetylcholine receptor M4 (Rattus norvegicus, UniProt P08485); assay: Inhibition of rat muscarinic acetylcholine M4 receptor expressed in CHO cells co-expressing Gqi5 in the presence of acetylcholine at EC80 concentration by calcium mobilization assay; type: functional, cell-based
T5 sequence (P08485 whole entry): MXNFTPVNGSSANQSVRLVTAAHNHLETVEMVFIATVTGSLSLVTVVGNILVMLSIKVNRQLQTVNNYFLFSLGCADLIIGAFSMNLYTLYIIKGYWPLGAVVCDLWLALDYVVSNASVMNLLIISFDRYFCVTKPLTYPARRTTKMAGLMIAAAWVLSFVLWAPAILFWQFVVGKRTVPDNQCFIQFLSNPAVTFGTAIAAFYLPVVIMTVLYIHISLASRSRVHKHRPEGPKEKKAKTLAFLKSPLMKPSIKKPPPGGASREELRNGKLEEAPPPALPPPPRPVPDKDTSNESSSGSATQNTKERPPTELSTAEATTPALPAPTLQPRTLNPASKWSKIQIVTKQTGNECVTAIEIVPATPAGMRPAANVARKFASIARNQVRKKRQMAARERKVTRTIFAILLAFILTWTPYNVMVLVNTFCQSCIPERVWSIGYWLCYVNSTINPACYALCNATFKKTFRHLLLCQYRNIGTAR

[11] = target: T6, Muscarinic acetylcholine receptor M4 (Rattus norvegicus) (UniProt P08485); assay: Antagonist activity at rat muscarinic acetylcholine M4 receptor expressed in CHO cells co-expressing Gqi5 assessed as minimal acetylcholine response by calcium mobilization assay relative to control; type: functional, cell-based; parameters: scale not given: the % may be the effect or the level left; details: filed as antagonist
T6 sequence (whole entry): T5 sequence (P08485 whole entry)

[12] = target: hERG (KCNH2) (Homo sapiens, UniProt Q12809); assay: Inhibition of hERG at 10 uM by patch clamp method relative to control; type: toxicity
Chain of hERG (KCNH2) (Q12809 whole entry): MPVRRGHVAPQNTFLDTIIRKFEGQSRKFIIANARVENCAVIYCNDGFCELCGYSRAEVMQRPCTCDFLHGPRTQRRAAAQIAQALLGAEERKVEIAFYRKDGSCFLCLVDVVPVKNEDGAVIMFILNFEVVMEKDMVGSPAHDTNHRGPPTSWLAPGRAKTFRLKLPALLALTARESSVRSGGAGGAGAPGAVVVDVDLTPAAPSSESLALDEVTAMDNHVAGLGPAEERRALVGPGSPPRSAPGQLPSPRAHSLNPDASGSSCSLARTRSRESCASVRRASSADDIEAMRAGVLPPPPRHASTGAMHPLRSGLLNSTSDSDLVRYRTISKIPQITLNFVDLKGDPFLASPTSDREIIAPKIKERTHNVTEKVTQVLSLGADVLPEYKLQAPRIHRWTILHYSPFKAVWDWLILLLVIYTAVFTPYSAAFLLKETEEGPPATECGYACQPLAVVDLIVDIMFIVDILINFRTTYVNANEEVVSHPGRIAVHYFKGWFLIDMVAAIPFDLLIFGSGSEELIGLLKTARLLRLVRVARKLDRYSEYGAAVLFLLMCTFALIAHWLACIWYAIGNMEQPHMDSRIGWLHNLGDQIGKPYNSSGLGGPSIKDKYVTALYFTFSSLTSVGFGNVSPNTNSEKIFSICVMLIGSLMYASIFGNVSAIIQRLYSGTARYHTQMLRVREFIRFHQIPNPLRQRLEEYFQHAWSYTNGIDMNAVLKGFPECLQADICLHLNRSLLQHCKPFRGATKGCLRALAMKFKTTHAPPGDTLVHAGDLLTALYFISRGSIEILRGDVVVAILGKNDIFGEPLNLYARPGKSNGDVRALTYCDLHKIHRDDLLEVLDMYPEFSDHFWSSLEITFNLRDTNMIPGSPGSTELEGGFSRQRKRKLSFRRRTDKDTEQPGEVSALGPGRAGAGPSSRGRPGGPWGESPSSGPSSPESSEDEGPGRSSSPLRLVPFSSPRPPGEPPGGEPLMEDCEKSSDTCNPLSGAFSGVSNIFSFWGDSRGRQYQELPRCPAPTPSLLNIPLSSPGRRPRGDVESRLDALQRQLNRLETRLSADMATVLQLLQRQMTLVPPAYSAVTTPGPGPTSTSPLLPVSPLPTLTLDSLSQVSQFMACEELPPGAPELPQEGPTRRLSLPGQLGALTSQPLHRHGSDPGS

| Structure (SMILES) | IC50 [1] | Activity [2] | IC50 [3] | Ratio IC50 [4] | IC50 [5] | IC50 [6] | IC50 [7] | IC50 [8] | predicted hepatic clearance [9] | IC50 [10] | Activity [11] | inhibition at 10 µM [12] | Activity ([2]; tested as the 2H-labelled form) | Ratio IC50 ([4]; tested as the 2H-labelled form) |
| --- | --- | --- | --- | --- | --- | --- | --- | --- | --- | --- | --- | --- | --- | --- |
| Fc1ccc(Cl)c(-c2ccc(NCC3CC34CCN(CC3CCCCC3)CC4)nn2)c1 (stereo not given) | 18 nM | – | – | – | – | – | – | – | – | – | – | – | – | – |
| Cn1cc2cc(-c3ccc(NC[C@@H]4CC45CCN(CC4CCOCC4)CC5)nn3)ccc2n1 | 130 nM | 3.6% | 6200 nM | 50 | > 30000 nM | > 30000 nM | 19900 nM | > 30000 nM | 5.9 mL/min/kg | – | – | – | – | – |
| Fc1ccc(Cl)c(-c2ccc(NC[C@@H]3CC34CCN(CC3CCOCC3)CC4)nn2)c1 | 1.8 nM | 4.5% | 1600 nM | 900 | > 30000 nM | > 30000 nM | 5700 nM | > 30000 nM | 15 mL/min/kg | – | – | – | – | – |
| Fc1ccc(F)c(-c2ccc(NC[C@@H]3CC34CCN(CC3CCOCC3)CC4)nn2)c1 | 52 nM | 3.5% | 2600 nM | 60 | > 30000 nM | > 30000 nM | 1900 nM | 17000 nM | 10 mL/min/kg | – | – | – | – | – |
| Fc1ccc(Cl)c(-c2ccc(NC3CC34CCN(CC3CCOCC3)CC4)nn2)c1 (racemic) | > 10000 nM | – | – | – | – | – | – | – | – | – | – | – | – | – |
| Fc1ccc(Cl)c(-c2ccc(NC[C@@H]3CC34CCN(CC3CCCCC3)CC4)nn2)c1 | 12 nM | 2.6% | – | – | – | – | – | – | – | 81 nM | 4.3% | – | – | – |
| Fc1ccc(Cl)c(-c2ccc(NC[C@H]3CC34CCN(CC3CCCCC3)CC4)nn2)c1 | 28 nM | 3.7% | – | – | – | – | – | – | – | 530 nM | 4.4% | – | – | – |
| [2H]C([2H])(C1CCOCC1)N1CCC2(CC1)C[C@H]2CNc1ccc(-c2cc(F)cc(F)c2F)nn1 | 42 nM | – | 3000 nM | – | > 30000 nM | > 30000 nM | > 30000 nM | 27600 nM | 11 mL/min/kg | – | – | 98% | – | – |
| c1ccc(-c2ccc(NC[C@@H]3CC34CCN(CC3CCOCC3)CC4)nn2)cc1 | 120 nM | 3.5% | > 10000 nM | > 80 | > 30000 nM | > 30000 nM | 2500 nM | > 30000 nM | 8 mL/min/kg | – | – | – | – | – |
| Fc1cccc(-c2ccc(NC[C@@H]3CC34CCN(CC3CCOCC3)CC4)nn2)c1 | 54 nM | 4.2% | – | – | – | – | – | – | – | – | – | – | – | – |
| Fc1ccc(Cl)c(-c2ccc(NC3CC4(C3)CN(CC3CCOCC3)C4)nn2)c1 | 2900 nM | 7.8% | – | – | – | – | – | – | – | – | – | – | – | – |
| Fc1cc(F)c(F)c(-c2ccc(NC[C@@H]3CC34CCN(CC3CCOCC3)CC4)nn2)c1 | 33 nM | 3% | 1800 nM | 55 | > 30000 nM | > 30000 nM | 550 nM | > 30000 nM | 8.4 mL/min/kg | – | – | 99% | 3.3% | 70 |
| Fc1ccc(-c2ccc(NC[C@@H]3CC34CCN(CC3CCOCC3)CC4)nn2)cc1 | 280 nM | 4.1% | – | – | – | – | – | – | – | – | – | – | – | – |
| Fc1ccccc1-c1ccc(NC[C@@H]2CC23CCN(CC2CCOCC2)CC3)nn1 | 72 nM | 4.3% | – | – | – | – | – | – | – | – | – | – | – | – |
| Fc1ccc(Cl)c(-c2ccc(NCC3CC4(CCN(CC5CCOCC5)CC4)C3)nn2)c1 | – | 4.7% | – | – | – | – | – | – | – | – | – | – | – | – |
